Assays:
ALOMY [1] = assay: Pre-emergence action against ALOMY, 1280 g/ha; assay type: in vivo, Alopecurus myosuroides; conditions: visual scoring after about 3 weeks vs untreated controls, 100% = plants have died, 0% = like control plants
In short: (§1)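 Weed seeds sown in sandy loam in pots, covered with soil; compound as WP or EC applied to soil surface as aqueous suspension/emulsion with 0.5% additive at 600 L/ha water. Greenhouse, good growth conditions; visual % damage vs untreated controls after about 3 weeks (100% = plants dead, 0% = like control).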

DIGSA [2] = assay: Pre-emergence action against DIGSA, 1280 g/ha; assay type: in vivo, Digitaria sanguinalis; conditions: visual scoring after about 3 weeks vs untreated controls, 100% = plants have died, 0% = like control plants
In short: as §1

ECHCG [3] = assay: Pre-emergence action against ECHCG, 1280 g/ha; assay type: in vivo, Echinochloa crus-galli; conditions: visual scoring after about 3 weeks vs untreated controls, 100% = plants have died, 0% = like control plants
In short: as §1

LOLRI [4] = assay: Pre-emergence action against LOLRI, 1280 g/ha; assay type: in vivo, Lolium rigidum; conditions: visual scoring after about 3 weeks vs untreated controls, 100% = plants have died, 0% = like control plants
In short: as §1

POAAN [5] = assay: Pre-emergence action against POAAN, 1280 g/ha; assay type: in vivo, Poa annua; conditions: visual scoring after about 3 weeks vs untreated controls, 100% = plants have died, 0% = like control plants
In short: as §1

SETVI [6] = assay: Pre-emergence action against SETVI, 1280 g/ha; assay type: in vivo, Setaria viridis; conditions: visual scoring after about 3 weeks vs untreated controls, 100% = plants have died, 0% = like control plants
In short: as §1

ABUTH [7] = assay: Pre-emergence action against ABUTH, 1280 g/ha; assay type: in vivo, Abutilon theophrasti; conditions: scored visually after about 3 weeks vs untreated controls (100% = plants have died)
In short: as §1

AMARE [8] = assay: Pre-emergence action against AMARE, 1280 g/ha; assay type: in vivo, Amaranthus retroflexus; conditions: scored visually after about 3 weeks vs untreated controls (100% = plants have died)
In short: as §1

KCHSC = assay: Pre-emergence action against KCHSC, 1280 g/ha; assay type: in vivo, Bassia scoparia; conditions: scored visually after about 3 weeks vs untreated controls (100% = plants have died)
In short: as §1

MATIN [9] = assay: Pre-emergence action against MATIN, 1280 g/ha; assay type: in vivo, Tripleurospermum inodorum (Matricaria inodora); conditions: scored visually after about 3 weeks vs untreated controls (100% = plants have died)
In short: as §1

STEME [10] = assay: Pre-emergence action against STEME, 1280 g/ha; assay type: in vivo, Stellaria media; conditions: scored visually after about 3 weeks vs untreated controls (100% = plants have died)
In short: as §1

VERPE [11] = assay: Pre-emergence action against VERPE, 1280 g/ha; assay type: in vivo, Veronica persica; conditions: scored visually after about 3 weeks vs untreated controls (100% = plants have died)
In short: as §1

ALOMY [12] = assay: Pre-emergence action at 320 g/ha against ALOMY; assay type: in vivo, Alopecurus myosuroides; conditions: scored visually after about 3 weeks vs untreated controls (100% = plants have died)
In short: (§2)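 Application: aqueous WP or EC with 0.5% additive on soil covering seeds, 600 l/ha. Read-out: visual percent damage after ~3 weeks in greenhouse, untreated pots as reference.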

AVEFA = assay: Pre-emergence action at 320 g/ha against AVEFA; assay type: in vivo; conditions: visual scoring after about 3 weeks vs untreated controls
In short: as §2

DIGSA [13] = assay: Pre-emergence action at 320 g/ha against DIGSA; assay type: in vivo, Digitaria sanguinalis; conditions: visual scoring after about 3 weeks vs untreated controls
In short: as §2

ECHGC = assay: Pre-emergence action at 320 g/ha against ECHGC; assay type: in vivo, Echinochloa crus-galli; conditions: visual scoring after about 3 weeks vs untreated controls
In short: as §2

LOLRI [14] = assay: Pre-emergence action at 320 g/ha against LOLRI; assay type: in vivo, Lolium rigidum; conditions: visual scoring after about 3 weeks vs untreated controls
In short: as §2

SETVI [15] = assay: Pre-emergence action at 320 g/ha against SETVI; assay type: in vivo, Setaria viridis; conditions: visual scoring after about 3 weeks vs untreated controls
In short: as §2

AMARE [16] = assay: Pre-emergence action at 320 g/ha against AMARE; assay type: in vivo, Amaranthus retroflexus; conditions: visual scoring after about 3 weeks vs untreated controls
In short: as §2

MATIN [17] = assay: Pre-emergence action at 320 g/ha against MATIN; assay type: in vivo, Tripleurospermum inodorum (Matricaria inodora); conditions: visual scoring after about 3 weeks vs untreated controls
In short: as §2

PHBPU = assay: Pre-emergence action at 320 g/ha against PHBPU; assay type: in vivo; conditions: visual scoring after about 3 weeks vs untreated controls
Excerpt: b) Seeds of monocotyledonous and dicotyledonous weed plants and crop plants are placed in plastic or organic planting pots and covered with soil. The compounds of the invention, formulated in the form of wettable powders (WP) or as emulsion concentrates (EC), are then applied onto the surface of the covering soil as aqueous suspension or emulsion with addition of 0.5% additive at a water application rate of 600 l/ha (converted). After the treatment, the pots are placed in a greenhouse and kept under good growth conditions for the trial plants. After about 3 weeks, the effect of the preparations is scored visually in comparison with untreated controls as percentages. For example, 100% activity=the plants have died, 0% activity=like control plants. Tables 13 to 26 below show the effects of selected compounds of the general formula (I) on various harmful plants and at an application rate corresponding to 320 g/ha, which were obtained by the experimental procedure mentioned above.

POLCO = assay: Pre-emergence action at 320 g/ha against POLCO; assay type: in vivo, Fallopia convolvulus (Polygonum convolvulus); conditions: visual scoring after about 3 weeks vs untreated controls
In short: as §2

VERPE [18] = assay: Pre-emergence action at 320 g/ha against VERPE; assay type: in vivo, Veronica persica; conditions: visual scoring after about 3 weeks vs untreated controls
In short: as §2

VIOTR = assay: Pre-emergence action at 320 g/ha against VIOTR; assay type: in vivo, Viola tricolor; conditions: dosage 320 g/ha
In short: as §2

ALOMY [19] = assay: Post-emergence action against ALOMY, 1.28 kg/ha; assay type: in vivo, Alopecurus myosuroides; conditions: dosage 1280 g/ha, visual rating about 3 weeks after treatment vs untreated controls
In short: (§3)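 Weeds grown in sandy loam in a greenhouse were sprayed at the one-leaf stage, 2–3 weeks after sowing, with WP or EC formulations in water containing 0.5% additive at 600 L/ha. About 3 weeks later, damage was scored visually versus untreated controls (0% = like control, 100% = dead).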

DIGSA [20] = assay: Post-emergence action against DIGSA, 1.28 kg/ha; assay type: in vivo, Digitaria sanguinalis; conditions: dosage 1280 g/ha, visual rating about 3 weeks after treatment vs untreated controls
In short: as §3

ECHCG [21] = assay: Post-emergence action against ECHCG, 1.28 kg/ha; assay type: in vivo, Echinochloa crus-galli; conditions: dosage 1280 g/ha, visual rating about 3 weeks after treatment vs untreated controls
In short: as §3

LOLRI [22] = assay: Post-emergence action against LOLRI, 1.28 kg/ha; assay type: in vivo, Lolium rigidum; conditions: dosage 1280 g/ha, visual rating about 3 weeks after treatment vs untreated controls
In short: as §3

POAAN [23] = assay: Post-emergence action against POAAN, 1.28 kg/ha; assay type: in vivo, Poa annua; conditions: dosage 1280 g/ha, visual rating about 3 weeks after treatment vs untreated controls
In short: as §3

SETVI [24] = assay: Post-emergence action against SETVI, 1.28 kg/ha; assay type: in vivo, Setaria viridis; conditions: dosage 1280 g/ha, visual rating about 3 weeks after treatment vs untreated controls
In short: as §3

ABUTH [25] = assay: Post-emergence action against ABUTH, 1.28 kg/ha; assay type: in vivo, Abutilon theophrasti; conditions: dosage 1280 g/ha, visual rating about 3 weeks after treatment vs untreated controls (100% = plants died)
In short: as §3

AMARE [26] = assay: Post-emergence action against AMARE, 1.28 kg/ha; assay type: in vivo, Amaranthus retroflexus; conditions: dosage 1280 g/ha, visual rating about 3 weeks after treatment vs untreated controls (100% = plants died)
In short: as §3

MATIN [27] = assay: Post-emergence action against MATIN, 1.28 kg/ha; assay type: in vivo, Tripleurospermum inodorum (Matricaria inodora); conditions: dosage 1280 g/ha, visual rating about 3 weeks after treatment vs untreated controls (100% = plants died)
In short: as §3

STEME [28] = assay: Post-emergence action against STEME, 1.28 kg/ha; assay type: in vivo, Stellaria media; conditions: dosage 1280 g/ha, visual rating about 3 weeks after treatment vs untreated controls (100% = plants died)
In short: as §3

VERPE [29] = assay: Post-emergence action against VERPE, 1.28 kg/ha; assay type: in vivo, Veronica persica; conditions: dosage 1280 g/ha, visual rating about 3 weeks after treatment vs untreated controls (100% = plants died)
In short: as §3

N#CCCOC(=O)COc1nn(-c2ccccc2F)c(-c2ccc(F)nc2)c1Br [VII-110]
Pre-emergence action against ALOMY (ALOMY [1]): 100%
Pre-emergence action against DIGSA (DIGSA [2]): 100%
Pre-emergence action against ECHCG (ECHCG [3]): 100%
Pre-emergence action against LOLRI (LOLRI [4]): 100%
Pre-emergence action against POAAN (POAAN [5]): 100%
Pre-emergence action against SETVI (SETVI [6]): 100%
Pre-emergence action against ABUTH (ABUTH [7]): 90%
Pre-emergence action against AMARE (AMARE [8]): 100%
Pre-emergence action against KCHSC (KCHSC): 90%
Pre-emergence action against MATIN (MATIN [9]): 100%
Pre-emergence action against STEME (STEME [10]): 100%
Pre-emergence action against VERPE (VERPE [11]): 100%
Pre-emergence action at 320 g/ha against ALOMY in % (ALOMY [12]): 100%
Pre-emergence action against AVEFA in % (AVEFA): 80%
Pre-emergence action against DIGSA in % (DIGSA [13]): 100%
Pre-emergence action against ECHGC in % (ECHGC): 100%
Pre-emergence action against LOLRI in % (LOLRI [14]): 100%
Pre-emergence action against SETVI in % (SETVI [15]): 100%
Pre-emergence action against AMARE in % (AMARE [16]): 100%
Pre-emergence action against MATIN in % (MATIN [17]): 100%
Pre-emergence action against PHBPU in % (PHBPU): 90%
Pre-emergence action against POLCO in % (POLCO): 100%
Pre-emergence action against VERPE in % (VERPE [18]): 100%
Pre-emergence action against VIOTR in % (VIOTR): 100%
Post-emergence action against ALOMY (ALOMY [19]): 100%
Post-emergence action against DIGSA (DIGSA [20]): 100%
Post-emergence action against ECHCG (ECHCG [21]): 100%
Post-emergence action against LOLRI (LOLRI [22]): 100%
Post-emergence action against POAAN (POAAN [23]): 100%
Post-emergence action against SETVI (SETVI [24]): 90%
Post-emergence action against ABUTH (ABUTH [25]): 90%
Post-emergence action against AMARE (AMARE [26]): 90%
Post-emergence action against MATIN (MATIN [27]): 100%
Post-emergence action against STEME (STEME [28]): 100%
Post-emergence action against VERPE (VERPE [29]): 100%

C[C@@H](Oc1nn(-c2ccccc2F)c(-c2cncc(F)c2)c1Br)C(=O)O [VII-128]
Pre-emergence action at 320 g/ha against ALOMY in % (ALOMY [12]): 100%
Pre-emergence action against AVEFA in % (AVEFA): 80%
Pre-emergence action against DIGSA in % (DIGSA [13]): 100%
Pre-emergence action against ECHGC in % (ECHGC): 90%
Pre-emergence action against LOLRI in % (LOLRI [14]): 100%
Pre-emergence action against SETVI in % (SETVI [15]): 100%
Pre-emergence action against AMARE in % (AMARE [16]): 100%
Pre-emergence action against MATIN in % (MATIN [17]): 90%
Pre-emergence action against PHBPU in % (PHBPU): 90%
Pre-emergence action against POLCO in % (POLCO): 90%
Pre-emergence action against VERPE in % (VERPE [18]): 100%
Pre-emergence action against VIOTR in % (VIOTR): 100%
